Assay in one series: not given
Details: not given
By logP is commonly meant the decadic logarithm of the partition coefficient of the neutral form, usually between octanol and water. With `COc1ccc(CNC(=O)C2(O)C(C)CC3C4CCC5=CC(=O)C=CC5(C)C4(F)C(O)CC32C)cc1` (stereo unspecified), the logP was 3.04. On the same count and under the same terms, for `CC1CC2C3CCC4=CC(=O)C=CC4(C)C3(F)C(O)CC2(C)C1(O)C(=O)NCc1ccc([N+](=O)[O-])cc1` (stereo unspecified) the value was 3.37; for `CC(C)CCCCNC(=O)C1(O)C(C)CC2C3CCC4=CC(=O)C=CC4(C)C3(F)C(O)CC21C` (stereo unspecified), 3.91. The same measure, in the same setting: to `COc1ccccc1CNC(=O)C1(O)C(C)CC2C3CCC4=CC(=O)C=CC4(C)C3(F)C(O)CC21C` (stereo unspecified) belongs 3.09. Same read-out and setting: to `CC1CC2C3CCC4=CC(=O)C=CC4(C)C3(F)C(O)CC2(C)C1(O)C(=O)NCc1ccc(Cl)cc1` (stereo unspecified) belongs 3.71; to `COc1cccc(CNC(=O)C2(O)CC3C4CCC5=CC(=O)C=CC5(C)C4(F)C(O)CC32C)c1` (stereo unspecified), 3.15.

Another series is described as follows: method code SF-HPLC, from DOI: 10.1016/s0021-9673(01)84554-4.
Details: not given
The compound `CCCNCCNC(=O)C1(O)C(C)CC2C3CCC4=CC(=O)C=CC4(C)C3(F)C(O)CC21C` (stereo unspecified) gave a logP of 3.94. Still for that read-out and setting: for `CC1CC2C3CCC4=CC(=O)C=CC4(C)C3(F)C(O)CC2(C)C1(O)C(=O)NCCCCCCCCN` (stereo unspecified) the value was 3.72. The same measure, in the same setting: to `CC1CC2C3CCC4=CC(=O)C=CC4(C)C3(F)C(O)CC2(C)C1(O)C(=O)NCCCCCCCCCN` (stereo unspecified) belongs 4.13; to `CC1CC2C3CCC4=CC(=O)C=CC4(C)C3(F)C(O)CC2(C)C1(O)C(=O)NCC(=O)O` (stereo unspecified), 1.2. As to `CC1CC2C3CCC4=CC(=O)C=CC4(C)C3(F)C(O)CC2(C)C1(O)C(=O)NCCCCN` (stereo unspecified), the logP came to 2.3. The same measure, in the same setting: for `CC1CC2C3CCC4=CC(=O)C=CC4(C)C3(F)C(O)CC2(C)C1(O)C(=O)NCCCCCCN` (stereo unspecified) the value was 2.61. Same read-out and setting: for `CC1CC2C3CCC4=CC(=O)C=CC4(C)C3(F)C(O)CC2(C)C1(O)C(=O)NCCCCCC(=O)O` (stereo unspecified) the value was 2.29.

Staying with this series, now noted: pH 7.4.
One may read the logD as lipophilicity at a set pH, counting ionised and neutral species. Low readings indicate a more hydrophilic compound, high ones a more lipophilic compound. Consider `CC(C)CNC(=O)C1(O)C(C)CC2C3CCC4=CC(=O)C=CC4(C)C3(F)C(O)CC21C` (stereo unspecified), for which the logD came out at 3.01. Still for that read-out and setting: for `CC1CC2C3CCC4=CC(=O)C=CC4(C)C3(F)C(O)CC2(C)C1(O)C(=O)NC(C)(C)C` (stereo unspecified) the value was 3.2; for `C[C@@H]1C[C@H]2[C@@H]3CCC4=CC(=O)C=C[C@]4(C)[C@@]3(F)[C@@H](O)C[C@]2(C)[C@@]1(O)C(N)=O`, 1.41. Same read-out and setting: to `CCNC(=O)C1(O)C(C)CC2C3CCC4=CC(=O)C=CC4(C)C3(F)C(O)CC21C` (stereo unspecified) belongs 2.07; to `CNC(=O)C1(O)C(C)CC2C3CCC4=CC(=O)C=CC4(C)C3(F)C(O)CC21C` (stereo unspecified), 1.54; to `CCOC(CNC(=O)C1(O)C(C)CC2C3CCC4=CC(=O)C=CC4(C)C3(F)C(O)CC21C)OCC` (stereo unspecified), 2.65. On the same count and under the same terms, to `CC1CC2C3CCC4=CC(=O)C=CC4(C)C3(F)C(O)CC2(C)C1(O)C(=O)NCCO` (stereo unspecified) belongs 1.51. `CC1CC2C3CCC4=CC(=O)C=CC4(C)C3(F)C(O)CC2(C)C1(O)C(=O)NCc1ccccc1` (stereo unspecified) showed a logD of 3.28. The same measure, in the same setting: to `CC1CC2C3CCC4=CC(=O)C=CC4(C)C3(F)C(O)CC2(C)C1(O)C(=O)NCCc1ccccc1` (stereo unspecified) belongs 3.66. Same read-out and setting: for `CCCCCNC(=O)C1(O)C(C)CC2C3CCC4=CC(=O)C=CC4(C)C3(F)C(O)CC21C` (stereo unspecified) the value was 3.64; for `CCCCNC(=O)C1(O)C(C)CC2C3CCC4=CC(=O)C=CC4(C)C3(F)C(O)CC21C` (stereo unspecified), 3.1; for `C#CCNC(=O)C1(O)C(C)CC2C3CCC4=CC(=O)C=CC4(C)C3(F)C(O)CC21C` (stereo unspecified), 2. As for `CC1CC2C3CCC4=CC(=O)C=CC4(C)C3(F)C(O)CC2(C)C1(O)C(=O)NC1CCCCC1` (stereo unspecified), the logD was determined as 3.54.

Turning to `COC(=O)CNC(=O)C1(O)C(C)CC2C3CCC4=CC(=O)C=CC4(C)C3(F)C(O)CC21C` (stereo unspecified), the logD is 1.69. Same read-out and setting: to `CCCCCCNC(=O)C1(O)C(C)CC2C3CCC4=CC(=O)C=CC4(C)C3(F)C(O)CC21C` (stereo unspecified) belongs 4.54; to `CC(C)CCNC(=O)C1(O)C(C)CC2C3CCC4=CC(=O)C=CC4(C)C3(F)C(O)CC21C` (stereo unspecified), 3.74; to `CC1CC2C3CCC4=CC(=O)C=CC4(C)C3(F)C(O)CC2(C)C1(O)C(=O)NCC#N` (stereo unspecified), 1.57. Still for that read-out and setting: to `CC(C)NC(=O)C1(O)C(C)CC2C3CCC4=CC(=O)C=CC4(C)C3(F)C(O)CC21C` (stereo unspecified) belongs 2.43; to `COC(=O)C(Cc1ccccc1)NC(=O)C1(O)C(C)CC2C3CCC4=CC(=O)C=CC4(C)C3(F)C(O)CC21C` (stereo unspecified), 3.4; to `CC(C)CCCNC(=O)C1(O)C(C)CC2C3CCC4=CC(=O)C=CC4(C)C3(F)C(O)CC21C` (stereo unspecified), 3.93. Still for that read-out and setting: to `CC1CC2C3CCC4=CC(=O)C=CC4(C)C3(F)C(O)CC2(C)C1(O)C(=O)NCCCl` (stereo unspecified) belongs 2.73; to `CCCNC(=O)C1(O)C(C)CC2C3CCC4=CC(=O)C=CC4(C)C3(F)C(O)CC21C` (stereo unspecified), 2.59; to `CC1CC2C3CCC4=CC(=O)C=CC4(C)C3(F)C(O)CC2(C)C1(O)C(=O)NC(CO)c1ccccc1` (stereo unspecified), 2.89.

Values taken from the SangsterLogP compilation.
